We go through four compounds from patent US20140377219A1, “HIV INHIBITORS” (New york Blood Center, Inc., priority 2011, published 2014).

Like-named read-outs stand apart in the source and are kept apart here. Where only a bound is given, the exact number is not on record here.

One may read the IC50 as the point on the concentration scale where inhibition reaches its midpoint. For orientation: CC50 means the concentration giving 50% cytotoxicity.

Data set [1] has as its system primary HIV-1 isolate 92US657 (subtype B, R5). As to the kind of experiment: Neutralization assay in PBMC (p24 ELISA). The following applies: read-out: IC50 (μM) ± S.D., inhibitory activity on infection; 92US657, subtype B, PBMC, R5, primary isolate. In general terms: In an ELISA, binding on a coated surface is turned into a signal by an enzyme label.
Method: (§1) PBMCs were isolated from the blood of healthy donors at the New York Blood Center by standard density-gradient centrifugation using Histopaque-1077 (Sigma-Aldrich). The cells were cultured at 37° C. for 2 h. Non-adherent cells were collected and resuspended at 5×10^6 cells/ml in RPMI-1640 medium containing 10% (v/v) fetal bovine serum, 5 μg/ml of phytohemagglutinin, and 100 U/ml of IL-2 (Sigma-Aldrich), followed by incubation at 37° C. for three days.
The test system of data set [2] is Panel C env CAP-45.2.00.G3, SVPC16. In kind it is cell-based. The conditions noted are these: TZM-bl, read-out: IC50 (μM) ± S.D., antiviral activity against HIV-1 envelope pseudoviruses.
The subject of data set [3] is Panel C env Du422, clone 1 (SVPC5). The data set is classed as cell-based. The conditions noted are these: TZM-bl, read-out: IC50 (μM) ± S.D., antiviral activity against HIV-1 envelope pseudoviruses.
In a further data set the test system is HIV-1 SF162. The data set is described as follows: Neutralization assay in PBMC (p24 ELISA). The conditions noted are these: read-out: IC50 (μM) ± S.D., inhibitory activity on infection; SF162, subtype B, PBMC, R5, laboratory strain.
Data set [4] concerns primary HIV-1 isolate 93BR029 (clade F, R5). The data set is described as follows: Neutralization assay in PBMC (p24 ELISA). The following applies: read-out: IC50 (μM) ± S.D., inhibitory activity on infection; 93BR029, subtype F, PBMC, R5, primary isolate.
Method: as §1
Data set [5] relates to Panel C env ZM-135M.PL10a, SVPC15. In kind it is cell-based. The conditions noted are these: TZM-bl, read-out: IC50 (μM) ± S.D., antiviral activity against HIV-1 envelope pseudoviruses.
Another data set relates to PBMC. As to the kind of experiment: Cytotoxicity in PBMC (XTT). In kind it is cell-based. The protocol: Cytotoxicity of small molecules in MT-2 cells and PBMC was measured by the XTT ((sodium 3′-(1-(phenylamino)-carbonyl)-3,4-tetrazolium-bis(4-methoxy-6-nitro)benzene-sulfonic acid hydrate)) method. Briefly, for MT-2 cells, 100 μl of a small molecule at graded concentrations was added to an equal volume of cells (10^5 cells/ml) in 96-well plates followed by incubation at 37° C. for four days, which ran parallel with the neutralization assay in MT-2 (except medium was added instead of virus). In the case of PBMC, 5×10^5 cells/ml was used and the cytotoxicity was measured after seven days. […] The percentage cytotoxicity and the CC50 values were calculated as described above.
(In general: Tetrazolium dyes change colour on reduction, which living cells bring about.)

Data set [6] deals with Panel C env Du172, clone 17 (SVPC4). In kind it is cell-based. The following applies: TZM-bl, read-out: IC50 (μM) ± S.D., antiviral activity against HIV-1 envelope pseudoviruses.
In data set [7] the test system is Panel C env ZM-53M.PB12, SVPC11. The data set is classed as cell-based. The conditions noted are these: TZM-bl, read-out: IC50 (μM) ± S.D., antiviral activity against HIV-1 envelope pseudoviruses.
In data set [8] the test system is Panel B env pCAAN5342 clone A2 (SVPB19). The data set is classed as cell-based. The following applies: TZM-bl, read-out: IC50 (μM) ± S.D., antiviral activity against HIV-1 envelope pseudoviruses.
The test system of another data set is HIV-1 MN. The data set is described as follows: Multi-cycle neutralization assay in MT-2 cells. The following applies: read-out: IC50 (μM) ± S.D., inhibitory activity on infection; MN, subtype B, MT-2, X4, laboratory strain.
For data set [9], the system named is Panel C env ZM-249M.PL1, SVPC10. In kind it is cell-based. The conditions noted are these: TZM-bl, read-out: IC50 (μM) ± S.D., antiviral activity against HIV-1 envelope pseudoviruses.
Data set [10] deals with Panel C env CAP-210.2.00.E8, SVPC17. In kind it is cell-based. The following applies: TZM-bl, read-out: IC50 (μM) ± S.D., antiviral activity against HIV-1 envelope pseudoviruses.
In data set [11] the test system is AZT-resistant (AZT-R) HIV-1 strain. As to the kind of experiment: Multi-cycle neutralization assay in MT-2 cells. The conditions noted are these: read-out: IC50 (μM) ± S.D., inhibitory activity on infection; AZT-R, subtype B, MT-2, X4, RT-resistant isolate.
Another data set deals with HIV-1 BaL. The data set is described as follows: Neutralization assay in PBMC (p24 ELISA). The conditions noted are these: read-out: IC50 (μM) ± S.D., inhibitory activity on infection, BaL, subtype B, R5, laboratory strain.
Data set [12] relates to Panel C env ZM-233M.PB6, SVPC9. In kind it is cell-based. The conditions noted are these: TZM-bl, read-out: IC50 (μM) ± S.D., antiviral activity against HIV-1 envelope pseudoviruses.
In the next data set the test system is HIV-1 RF. The data set is described as follows: Multi-cycle neutralization assay in MT-2 cells. The conditions noted are these: read-out: IC50 (μM) ± S.D., inhibitory activity on infection; RF, subtype B, MT-2, R5X4, laboratory strain.
In another data set the test system is HIV-1 SF2. The data set is described as follows: Multi-cycle neutralization assay in MT-2 cells. The following applies: read-out: IC50 (μM) ± S.D., inhibitory activity on infection; SF2, subtype B, MT-2, R5X4, laboratory strain.
The test system of data set [13] is pNL4-3 gp41 (36G) V38E, N42S (fusion resistant isolate). The data set is classed as cell-based, HIV-1. The conditions noted are these: subtype B, MT-2, X4, fusion resistant isolate, read-out: IC50 (μM) ± S.D., inhibitory activity on infection.
Data set [14] concerns primary HIV-1 isolate 93TH060 (subtype E, R5). The data set is described as follows: Neutralization assay in PBMC (p24 ELISA). The following applies: read-out: IC50 (μM) ± S.D., inhibitory activity on infection; 93TH060, subtype E, PBMC, R5, primary isolate.
Method: (§2) The inhibitory activity of small molecules on infection by primary HIV-1 isolates was determined. PBMCs were isolated from the blood of healthy donors at the New York Blood Center by standard density-gradient centrifugation using Histopaque-1077 (Sigma-Aldrich). The cells were cultured at 37° C. for 2 h. Non-adherent cells were collected and resuspended at 5×10^6 cells/ml in RPMI-1640 medium containing 10% (v/v) fetal bovine serum, 5 μg/ml of phytohemagglutinin, and 100 U/ml of IL-2 (Sigma-Aldrich), followed by incubation at 37° C. for three days.
For data set [15], the system named is Panel C env ZM-109F.PB4, SVPC13. In kind it is cell-based. The conditions noted are these: TZM-bl, read-out: IC50 (μM) ± S.D., antiviral activity against HIV-1 envelope pseudoviruses.
The test system of data set [16] is primary HIV-1 isolate BCF02 (Group 0, R5). The data set is described as follows: Neutralization assay in PBMC (p24 ELISA). The conditions noted are these: read-out: IC50 (μM) ± S.D., inhibitory activity on infection; BCF02, Group 0, PBMC, R5, primary isolate.
Method: as §2
In data set [17] the test system is primary HIV-1 isolate 92UG031 (subtype A, R5). The data set is described as follows: Neutralization assay in PBMC (p24 ELISA). The following applies: read-out: IC50 (μM) ± S.D., inhibitory activity on infection; 92UG031, subtype A, PBMC, R5, primary isolate.
Method: as §2
Data set [18] deals with primary HIV-1 isolate 93IN101 (subtype C, R5). The data set is described as follows: Neutralization assay in PBMC (p24 ELISA). The following applies: read-out: IC50 (μM) ± S.D., inhibitory activity on infection; 93IN101, subtype C, PBMC, R5, primary isolate.
Method: as §2
Data set [19] concerns Panel B env SC422661, clone B (SVPB8). In kind it is cell-based. The following applies: TZM-bl, read-out: IC50 (μM) ± S.D., antiviral activity against HIV-1 envelope pseudoviruses.
Where [20] appears, read: PBMC, XTT, seven days, read-out: PBMC CC50.

Method for HIV-1 BaL: as §1
Method for HIV-1 MN: In brief, 1×10^4 MT-2 cells were infected with HIV-1 at 100 TCID50 (50% tissue culture infective dose) (0.01MOI) in 200 μl medium in the presence or absence of small molecules at graded concentrations and incubated overnight. The culture supernatants were then removed and replaced with fresh media. On the fourth day post-infection, 100 μl of culture supernatants were collected from each well, mixed with equal volume of 5% Triton X-100 and tested for p24 antigen by sandwich-ELISA. The percent inhibition of p24 production and IC50 values were calculated by the GraphPad Prism software (GraphPad Software Inc.).
Method for HIV-1 SF162: as §1

In the case of `CC1(C)CC(NC(=O)C(=O)Nc2ccc(Cl)cc2)CC(C)(C)N1` [NBD-556, reference compound], the IC50 in [1] came out at 48 ± 1.65 µM; in data set [2], 7.9 ± 0.87 µM; in data set [3], 11.8 ± 2.9 µM; in the data set on HIV-1 SF162, 48.9 ± 7.3 µM; in [4], 40 ± 10.6 µM; in data set [5], 1.5 ± 0.01 µM. Also, the IC50 in [6] was found to be 4.2 ± 0.23 µM; in [7], 13.4 ± 0.06 µM; in data set [8], 2.4 ± 0.3 µM; in the data set on HIV-1 MN, 15.9 ± 1.6 µM; in [9], 6.1 ± 1.7 µM; in data set [10] it was 13.3 ± 1.3 µM. The IC50 in data set [11] was 58 ± 14.3 µM; with HIV-1 BaL, at least 118 µM; in [12], 4.9 ± 1.13 µM; with HIV-1 RF, 18.7 ± 1.3 µM; in the data set with HIV-1 SF2 it was at least 118 µM; in data set [13], 11 ± 0.9 µM. Also, the IC50 in [14] was over 45 µM; in data set [15], 10.4 ± 3.5 µM. Besides, in the data set on PBMC (setting [20]), the half-maximal cytotoxic concentration (CC50) was 961 µM.
Turning to `Cc1ccc(NC(=O)C(=O)NC(c2nc(C)c(CO)s2)C2CCCCN2)cc1F.Cl` (centres unmarked) [Compound 28, N^1-(3-fluoro-4-methylphenyl)-N^2-((5-(hydroxymethyl)-4-methylthiazol-2-yl)(piperidin-2-yl)methyl)oxalamide.HCl], the half-maximal inhibitory concentration (IC50) is 12.3 ± 1.3 µM in data set [1]; over 85 µM in [16]; over 42 µM in [3]; 8.1 ± 1.2 µM in the data set on HIV-1 SF162; 5.2 ± 1.1 µM in data set [4]; over 42 µM in data set [7]. In addition, the IC50 in data set [17] was 13.4 ± 1.2 µM; in data set [8], 1.5 ± 0.1 µM; in the data set on HIV-1 MN, 24.6 ± 4.6 µM; in data set [9] it was over 42 µM; in data set [10], over 42 µM; in data set [11] it was 5.5 ± 0.7 µM. Also, the IC50 with HIV-1 BaL is 23.7 ± 0.3 µM; with HIV-1 RF it was 11 ± 0.6 µM; with HIV-1 SF2, 38.7 ± 4.5 µM; in [18], over 85 µM; in data set [19], 2.5 ± 0.3 µM; in data set [13], 4.6 ± 0.4 µM. Also, the IC50 was 9.9 ± 1.8 µM in data set [14] and over 42 µM in data set [15]. Further, the CC50 in the data set on PBMC (setting [20]) was about 106 µM.
For the compound `Cc1nc(C(NC(=O)C(=O)Nc2ccc(Cl)cc2)C2CCCCN2)sc1CO.Cl` (centres unmarked) [Compound 6, N^1-(4-chlorophenyl)-N^2-((5-(hydroxymethyl)-4-methylthiazol-2-yl)(piperidin-2-yl)methyl)oxalamide.HCl], the IC50 is 8.6 ± 0.9 µM in data set [1]; about 87 µM in data set [16]; 4.7 ± 0.95 µM in data set [2]; 15.9 ± 0.4 µM in data set [3]; 12.7 ± 0.7 µM in the data set on HIV-1 SF162; 8 ± 1.3 µM in data set [4]. Also, the IC50 in [5] stood at 0.73 ± 0.13 µM; in [6], 3 ± 0.38 µM; in [7], 2.4 ± 0.2 µM; in [17], 9.3 ± 0.7 µM; in data set [8], 2.3 ± 0.3 µM; in the data set on HIV-1 MN, 4 ± 0.9 µM. For the same compound, the half-inhibitory concentration (IC50) in data set [9] was 1.5 ± 0.6 µM; in data set [10] it was 15.1 ± 1.5 µM; in data set [11], 4.4 ± 1.1 µM; in the data set on HIV-1 BaL, 35.8 ± 1.2 µM; in data set [12] it was 5.6 ± 1.3 µM; with HIV-1 RF, 9.6 ± 0.8 µM. Besides, the half-maximal inhibitory concentration (IC50) in the data set with HIV-1 SF2 was 5.7 ± 0.9 µM; in [18], over 87 µM; in data set [19] it was 2.3 ± 0.2 µM; in [13], 5.8 ± 0.3 µM; in data set [14], 7.2 ± 0.6 µM; in data set [15], 1.2 ± 0.2 µM. This compound had a CC50 in the data set on PBMC of over 160 µM.
Consider `Cc1nc(C(NC(=O)C(=O)Nc2ccc(Cl)c(F)c2)C2CCCCN2)sc1CCO.Cl` (centres unmarked) [Compound 39, N^1-(4-chloro-3-fluorophenyl)-N^2-((5-(2-hydroxyethyl)-4-methylthiazol-2-yl)(piperidin-2-yl)methyl)oxalamide.HCl], for which the IC50 in [1] is 7.1 ± 0.9 µM; in data set [16] it was 65.1 ± 3.5 µM; in [2] it was 3.4 ± 0.4 µM; in data set [3], 2.5 ± 0.1 µM; in the data set with HIV-1 SF162 it was 11.9 ± 1 µM; in [4], 8.3 ± 0.7 µM. Also, the concentration for half-maximal inhibition (IC50) was determined as 0.61 ± 0.1 µM in data set [5]; 5.3 ± 0.2 µM in data set [6]; 12.9 ± 1.5 µM in data set [17]; 0.8 ± 0.3 µM in [8]; 16.7 ± 1.5 µM in the data set on HIV-1 MN; 2.5 ± 0.2 µM in [9]. In addition, the IC50 in [10] is 3.2 ± 0.6 µM; in [11], 6.8 ± 0.6 µM; in the data set on HIV-1 BaL, 24.9 ± 4.5 µM; in data set [12], 2.5 ± 0.5 µM; in the data set on HIV-1 RF, 11.8 ± 1.2 µM; in the data set with HIV-1 SF2, 15.8 ± 1.7 µM. Further, the concentration for half-maximal inhibition (IC50) is about 81.5 µM in data set [18]; 1.3 ± 0.1 µM in data set [19]; 3.9 ± 0.3 µM in data set [13]; 13.7 ± 0.9 µM in data set [14]; 3 ± 0.1 µM in data set [15]. The “% toxicity at that dose (number in parenthesis), PBMC” value in the data set with PBMC is given as “(20%)”. The compound also yielded a CC50 in the data set on PBMC of over 81 µM.
